These results are taken from patent US10214531B2 (Institute for Drug Discovery, LLC, priority 2013, dated 2019).

The IC50 is the concentration that inhibits the measured activity by half.

Counter-ions that a name gives are not always drawn.

Sequence of recombinant human AMCase (Q9BZP6 22-476): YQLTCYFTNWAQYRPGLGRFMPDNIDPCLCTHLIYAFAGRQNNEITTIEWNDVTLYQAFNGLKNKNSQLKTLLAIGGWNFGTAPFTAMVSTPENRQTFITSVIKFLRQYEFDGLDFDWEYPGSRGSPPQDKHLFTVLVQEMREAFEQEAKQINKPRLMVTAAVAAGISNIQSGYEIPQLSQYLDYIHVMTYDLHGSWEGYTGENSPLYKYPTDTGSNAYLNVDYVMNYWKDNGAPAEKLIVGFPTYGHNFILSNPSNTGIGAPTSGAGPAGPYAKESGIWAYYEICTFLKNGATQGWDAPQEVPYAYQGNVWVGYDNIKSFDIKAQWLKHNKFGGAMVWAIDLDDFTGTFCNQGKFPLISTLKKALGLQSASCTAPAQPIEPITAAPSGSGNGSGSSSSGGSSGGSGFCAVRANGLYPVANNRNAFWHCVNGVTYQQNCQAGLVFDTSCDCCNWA

The target in this assay is recombinant human AMCase (Homo sapiens, UniProt Q9BZP6). In words: Human AMCase Activity Assay. Type of assay: biochemical. Conditions: recombinant hAMCase, 4-methylumbelliferyl chitobioside substrate, citrate buffer pH 5.2, 37° C., 60 minutes; read-out: Activity (IC50 value key). In outline:
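Recombinant human enzyme with fluorogenic 4-methylumbelliferyl β-D-N,N′-diacetylchitobioside substrate in citrate buffer, pH 5.2, 60 min at 37 °C in the dark with shaking. Read-out is 4MU fluorescence at 460 nm.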
In the case of `CN(CCc1ccccc1OC(F)(F)F)C1CCN(c2nc(N)n[nH]2)CC1` [Example 174, 1-(3-amino-1H-1,2,4-triazol-5-yl)-N-methyl-N-(2-(trifluoromethoxy)phenethyl)piperidin-4-amine], the IC50 lay in the range of 10 to 100 µM.
With `CN(CCc1ccc(Cl)c(Cl)c1)C1CCN(c2nc(N)n[nH]2)CC1` [Example 176, 1-(3-amino-1H-1,2,4-triazol-5-yl)-N-(3,4-dichlorophenethyl)-N-methylpiperidin-4-amine], the IC50 is 1 to 10 µM.
In the case of `COc1cccc(CCN(C)C2CCN(c3nc(N)n[nH]3)CC2)c1OC` [Example 177, 1-(3-amino-1H-1,2,4-triazol-5-yl)-N-(2,3-dimethoxyphenethyl)-N-methylpiperidin-4-amine] it was 10 to 100 µM.
In the case of `CN(C)c1ccc(CCN(C)C2CCN(c3nc(N)n[nH]3)CC2)cc1` [Example 178, 1-(3-amino-1H-1,2,4-triazol-5-yl)-N-(4-(dimethylamino)phenethyl)-N-methylpiperidin-4-amine] it was 10 to 100 µM.
As for `Cc1ccccc1CCN(C)C1CCN(c2nc(N)n[nH]2)CC1` [Example 179, 1-(3-amino-1H-1,2,4-triazol-5-yl)-N-methyl-N-(2-methylphenethyl)piperidin-4-amine], the IC50 is 10 to 100 µM.
As to `CN(CCc1cccc(C(F)(F)F)c1)C1CCN(c2nc(N)n[nH]2)CC1` [Example 180, 1-(3-amino-1H-1,2,4-triazol-5-yl)-N-methyl-N-(3-(trifluoromethyl)phenethyl)piperidin-4-amine], the IC50 is 0.1 to 1 µM.
Take `COc1ccc(OC)c(CCN(C)C2CCN(c3nc(N)n[nH]3)CC2)c1` [Example 182, 1-(3-amino-1H-1,2,4-triazol-5-yl)-N-(2,5-dimethoxyphenethyl)-N-methylpiperidin-4-amine]: the IC50 was 10 to 100 µM.
On to `CN(CCc1ccc(F)cc1)C1CCN(c2nc(N)n[nH]2)CC1` [Example 183, 1-(3-amino-1H-1,2,4-triazol-5-yl)-N-(4-fluorophenethyl)-N-methylpiperidin-4-amine], for which the IC50 lay within 1 to 10 µM.
In the case of `CN(CCc1c(Cl)cccc1Cl)C1CCN(c2nc(N)n[nH]2)CC1` [Example 184, 1-(3-amino-1H-1,2,4-triazol-5-yl)-N-(2,6-dichlorophenethyl)-N-methylpiperidin-4-amine] it was 1 to 10 µM.
`Nc1n[nH]c(N2CCC(N(CCc3ccc(Cl)cc3)CC(F)(F)F)CC2)n1` [Example 186, 1-(3-amino-1H-1,2,4-triazol-5-yl)-N-(4-chlorophenethyl)-N-(2,2,2-trifluoroethyl)piperidin-4-amine hydrochloride]: the IC50 is 10 to 100 µM.
For the molecule `Nc1n[nH]c(N2CCC(NS(=O)(=O)Cc3cccc(Br)c3)CC2)n1` [Example 191, N-(1-(3-amino-1H-1,2,4-triazol-5-yl)piperidin-4-yl)-1-(3-bromophenyl)methanesulfonamide], the half-inhibitory concentration (IC50) is 1 to 10 µM.
Consider `Nc1n[nH]c(N2CCC(NS(=O)(=O)Cc3cccc(C(F)(F)F)c3)CC2)n1` [Example 192, N-(1-(3-amino-1H-1,2,4-triazol-5-yl)piperidin-4-yl)-1-(3-(trifluoromethyl)phenyl)methanesulfonamide], for which the IC50 is 1 to 10 µM.
In the case of `Nc1n[nH]c(N2CCN(CCOc3ccccc3C(F)(F)F)CC2)n1` [Example 193, 5-(4-(2-(2-(trifluoromethyl)-phenoxy)ethyl)piperazin-1-yl)-1H-1,2,4-triazol-3-amine] it was over 100 µM.
Regarding `Nc1n[nH]c(N2CCN(CCOc3c(Cl)cccc3Cl)CC2)n1` [Example 194, 5-(4-(2-(2,6-dichlorophenoxy)ethyl)piperazin-1-yl)-1H-1,2,4-triazol-3-amine], the IC50 fell in the range of 10 to 100 µM.
As to `Nc1n[nH]c(N2CCC(C(=O)NCc3cccc4ccccc34)CC2)n1` [Example 195, 1-(3-amino-1H-1,2,4-triazol-5-yl)-N-(naphthalen-1-ylmethyl)piperidine-4-carboxamide], the IC50 was over 100 µM.
On to `Nc1n[nH]c(N2CCC(C(=O)NCc3cccc(F)c3)CC2)n1` [Example 196, 1-(3-amino-1H-1,2,4-triazol-5-yl)-N-(3-fluorobenzyl)piperidine-4-carboxamide], for which the IC50 is over 100 µM.
The value for `COc1ccccc1CNC(=O)C1CCN(c2nc(N)n[nH]2)CC1` [Example 197, 1-(3-amino-1H-1,2,4-triazol-5-yl)-N-(2-methoxybenzyl)piperidine-4-carboxamide] was over 100 µM; that for `Nc1n[nH]c(N2CCC(C(=O)NCc3ccccc3Cl)CC2)n1` [Example 198, 1-(3-amino-1H-1,2,4-triazol-5-yl)-N-(2-chlorobenzyl)piperidine-4-carboxamide] was over 100 µM.
Regarding `Nc1n[nH]c(N2CCC(C(=O)NCc3ccc(F)c(F)c3)CC2)n1` [Example 199, 1-(3-amino-1H-1,2,4-triazol-5-yl)-N-(3,4-difluorobenzyl)piperidine-4-carboxamide], the IC50 was over 100 µM.
As for `CC(Cc1ccc(Cl)cc1)N(C)C1CCN(c2nc(N)n[nH]2)CC1` (stereo not drawn) [Example 200, 1-(3-amino-1H-1,2,4-triazol-5-yl)-N-(1-(4-chlorophenyl)propan-2-yl)-N-methylpiperidin-4-amine], the IC50 is under 0.1 µM.
The value for `COc1ccc(CNC(=O)C2CCN(c3nc(N)n[nH]3)CC2)c(OC)c1` [Example 201, 1-(3-amino-1H-1,2,4-triazol-5-yl)-N-(2,4-dimethoxybenzyl)piperidine-4-carboxamide] was over 100 µM; that for `Cc1oc(C(F)(F)F)cc1CNC(=O)C1CCN(c2nc(N)n[nH]2)CC1` [Example 202, 1-(3-amino-1H-1,2,4-triazol-5-yl)-N-((2-methyl-5-(trifluoromethyl)furan-3-yl)methyl)piperidine-4-carboxamide] was over 100 µM.
The value for `Cc1ccc(C)c(CNC(=O)C2CCN(c3nc(N)n[nH]3)CC2)c1` [Example 204, 1-(3-amino-1H-1,2,4-triazol-5-yl)-N-(2,5-dimethylbenzyl)piperidine-4-carboxamide] was over 100 µM.
In the case of `Nc1n[nH]c(N2CCC(C(=O)NCc3ccc(OC(F)(F)F)cc3)CC2)n1` [Example 205, 1-(3-amino-1H-1,2,4-triazol-5-yl)-N-(4-(trifluoromethoxy)benzyl)piperidine-4-carboxamide] it was over 100 µM; in that of `COc1ccc(CNC(=O)C2CCN(c3nc(N)n[nH]3)CC2)cc1` [Example 206, 1-(3-amino-1H-1,2,4-triazol-5-yl)-N-(4-methoxybenzyl)piperidine-4-carboxamide], over 100 µM.
Regarding `Nc1n[nH]c(N2CCC(C(=O)NCC3CCC(F)(F)CC3)CC2)n1` [Example 207, 1-(3-amino-1H-1,2,4-triazol-5-yl)-N-((4,4-difluorocyclohexyl)methyl)piperidine-4-carboxamide], the IC50 was over 100 µM.
The value for `Nc1n[nH]c(N2CCC(CNC(=O)c3cccc(F)c3)CC2)n1` [Example 208, N-((1-(3-amino-1H-1,2,4-triazol-5-yl)piperidin-4-yl)methyl)-3-fluorobenzamide] was over 100 µM; that for `Nc1n[nH]c(N2CCC(CNC(=O)c3cc(Br)cc(Br)c3)CC2)n1` [Example 209, N-((1-(3-amino-1H-1,2,4-triazol-5-yl)piperidin-4-yl)methyl)-3,5-dibromobenzamide] was over 100 µM; that for `Cc1cccc(C(=O)NCC2CCN(c3nc(N)n[nH]3)CC2)c1C` [Example 210, N-((1-(3-amino-1H-1,2,4-triazol-5-yl)piperidin-4-yl)methyl)-2,3-dimethylbenzamide] was over 100 µM.
With `COc1ccc(C(=O)NCC2CCN(c3nc(N)n[nH]3)CC2)cc1OC` [Example 211, N-((1-(3-amino-1H-1,2,4-triazol-5-yl)piperidin-4-yl)methyl)-3,4-dimethoxybenzamide], the IC50 was over 100 µM.
In the case of `Cc1ccccc1C(=O)NCC1CCN(c2nc(N)n[nH]2)CC1` [Example 212, N-((1-(3-amino-1H-1,2,4-triazol-5-yl)piperidin-4-yl)methyl)-2-methylbenzamide] it was over 100 µM.
In the case of `Nc1n[nH]c(N2CCC(CNC(=O)c3ccc(F)cc3F)CC2)n1` [Example 213, N-((1-(3-amino-1H-1,2,4-triazol-5-yl)piperidin-4-yl)methyl)-2,4-difluorobenzamide], the 50% inhibitory concentration (IC50) is over 100 µM.
For `Nc1n[nH]c(N2CCN(C(=O)CC(N)c3ccccc3F)CC2)n1` (stereo not drawn) [Example 214, 3-amino-1-(4-(3-amino-1H-1,2,4-triazol-5-yl)piperazin-1-yl)-3-(2-fluorophenyl)propan-1-one dihydrochloride], the IC50 was over 100 µM.
The value for `Nc1n[nH]c(N2CCN(C(=O)CC(N)c3ccc(F)cc3)CC2)n1` (stereo not drawn) [Example 215, 3-amino-1-(4-(3-amino-1H-1,2,4-triazol-5-yl)piperazin-1-yl)-3-(4-fluorophenyl)propan-1-one dihydrochloride] was over 100 µM.
The value for `CCC(CN1CCN(c2nc(N)n[nH]2)CC1)Oc1ccc(Cl)cc1` (stereo not drawn) [Example 216, 5-(4-(2-(4-chlorophenoxy)butyl)piperazin-1-yl)-1H-1,2,4-triazol-3-aminedihydrochloride] was 1 to 10 µM.
In the case of `Nc1n[nH]c(N2CCC(NC(=O)Nc3cc(Cl)c(Cl)cc3Cl)CC2)n1` [Example 217, 1-(1-(3-amino-1H-1,2,4-triazol-5-yl)piperidin-4-yl)-3-(2,4,5-trichlorophenyl)urea] it was over 100 µM; in that of `Nc1n[nH]c(N2CCC(CNC(=O)Nc3cccc(Cl)c3)CC2)n1` [Example 218], over 100 µM.
On to `Nc1n[nH]c(N2CCC(CNC(=O)c3ccc(F)c(F)c3)CC2)n1` [Example 220, N-((1-(3-amino-1H-1,2,4-triazol-5-yl)piperidin-4-yl)methyl)-3,4-difluorobenzamide], for which the IC50 was over 100 µM.
In the case of `Nc1n[nH]c(N2CCN(C(=O)[C@@H](O)Cc3ccc(Cl)cc3)CC2)n1` [Example 221, (S)-1-(4-(3-amino-1H-1,2,4-triazol-5-yl)piperazin-1-yl)-3-(4-chlorophenyl)-2-hydroxypropan-1-one] it was 10 to 100 µM.
